Assay: xn = mol fraction of the nth substance listed
Conditions: 100 kPa, Liquid; for viscosity: Concentric cylinders viscometry; for mass density: Vibrating tube method

CCOS(=O)(=O)[O-].CCn1cc[n+](C)c1 [1-ethyl-3-methylimidazolium ethyl sulfate] + CN1CCCC1=O
Conditions | mass density, 288.15 K [kg/m3] | mass density, 293.15 K [kg/m3] | mass density, 298.15 K [kg/m3] | mass density, 303.15 K [kg/m3] | mass density, 308.15 K [kg/m3] | viscosity, 288.15 K [mPa·s] | viscosity, 293.15 K [mPa·s] | viscosity, 298.15 K [mPa·s] | viscosity, 303.15 K [mPa·s] | viscosity, 308.15 K [mPa·s]
x1 = 0.1009 | 1079.2 | 1074.95 | 1070.72 | 1066.49 | 1062.28 | 3.992 | 3.554 | 3.21 | 2.908 | 2.649
x1 = 0.2012 | 1111.89 | 1107.79 | 1103.71 | 1099.65 | 1095.59 | 7.313 | 6.338 | 5.637 | 5.01 | 4.488
x1 = 0.3021 | 1138.72 | 1134.75 | 1130.79 | 1126.85 | 1122.93 | 12.42 | 10.51 | 9.181 | 8.026 | 7.071
x1 = 0.4012 | 1160.76 | 1156.89 | 1153.04 | 1149.22 | 1145.41 | 19.71 | 16.36 | 14.03 | 12.06 | 10.47
x1 = 0.4973 | 1178.79 | 1175.02 | 1171.26 | 1167.52 | 1163.8 | 29.14 | 23.79 | 20.08 | 17 | 14.56
x1 = 0.596 | 1194.97 | 1191.28 | 1187.6 | 1183.95 | 1180.31 | 42.09 | 33.7 | 27.95 | 23.38 | 19.81
x1 = 0.6998 | 1209.56 | 1205.95 | 1202.35 | 1198.77 | 1195.21 | 59.32 | 46.73 | 38.08 | 31.46 | 26.22
x1 = 0.7961 | 1221.74 | 1218.2 | 1214.66 | 1211.15 | 1207.65 | 79 | 61.57 | 49.4 | 40.33 | 33.3
x1 = 0.8821 | 1231.55 | 1228.07 | 1224.59 | 1221.13 | 1217.69 | 104.25 | 80.25 | 63.39 | 51.1 | 41.58
x1 = 1 | 1243.07 | 1239.66 | 1236.27 | 1232.87 | 1229.49 | 155.55 | 117.88 | 91.26 | 72.1 | 57.98

Reference: the NIST ThermoML archive (doi:10.1016/j.jct.2017.12.023)
